Test results as given in US20070010556A1, “Thiophene derivatives as chk 1 inhibitors” (ASTRAZENECA AB, priority 2004, published 2007).
pIC50: −log10 of the molar value.

Target: T1, CHK1 kinase (Homo sapiens, UniProt O14757)
T1 construct: The kinase domain is expressed in baculovirus and purified by the GST tag; GST; made in house
T1 sequence (O14757 9-265 limits assumed): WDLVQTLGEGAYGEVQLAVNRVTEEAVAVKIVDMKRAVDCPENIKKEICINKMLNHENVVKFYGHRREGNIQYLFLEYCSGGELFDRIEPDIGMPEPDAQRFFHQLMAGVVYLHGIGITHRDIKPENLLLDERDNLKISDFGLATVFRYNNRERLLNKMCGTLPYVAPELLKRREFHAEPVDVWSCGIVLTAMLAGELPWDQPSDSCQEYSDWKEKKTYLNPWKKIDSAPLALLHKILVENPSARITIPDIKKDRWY
Test: Checkpoint Kinase 1 Assay (Scintillation Proximity Assay)
Type: biochemical
Procedure: Checkpoint Kinase 1 Assay: This in vitro assay measures the inhibition of CHK1 kinase by compounds. The kinase domain is expressed in baculovirus and purified by the GST tag. Purified protein and biotinylated peptide substrate (Cdc25C) is then used in a 384 well automated Scintillation Proximity Assay (SPA). Specifically, peptide, enzyme and reaction buffer are mixed and aliquoted into a 384 well plate containing dilution series of compounds and controls. Cold and hot ATP are then added to initiate the reaction. After 2 hours, a SPA bead slurry, […] and EDTA are added to stop the reaction and capture the biotinylated peptide. Plates are then counted on a Topcount. Data is analyzed and IC50s determined for individual compounds.

## COc1ccc(F)cc1-c1cc(C(=O)N[C@H]2CCCCNC2)c(NC(N)=O)s1 [Example 97]
  pIC50: 9.85

## O=C(Nc1cnccn1)Nc1cc(-c2ccc(Cl)cc2)sc1C(=O)N[C@H]1CCCNC1 [Example 263, 5-(4-Chloro-phenyl)-3-(3-pyrazin-2-yl-ureido)-thiophene-2-carboxylic acid (S)-piperidin-3-ylamide]
  pIC50: 9.92
